The values that follow come from patent US20260224720A1, “ECTEINASCIDIN DERIVATIVE ANTIBODY DRUG CONJUGATES” (priority 2023, published 2026).

Structures are written as SMILES.

For data set [1] the following is noted: male mice, previously reported; cited from earlier work.
The next data set concerns HCC1954 (Her2 positive). Briefly: Adherent cells cytotoxicity assay (CellTiter-Glo), HCC1954. Particulars: Homo sapiens, 3 to 5 days. In kind it is cell-based. The procedure: (§1) Adherent cells were cultured in a T75 flask to ~50-80% confluency and harvested with trypsin into a single cell suspension. Three to five thousand (3,000-5,000) cells per well were seeded in tissue culture plates in 50 μL/well culture media and incubated at 37° C. for 18-24 hours. Serial dilutions of ADCs in culture media were then dispensed into the plates at 50 μL/well. After plating and treatment, cells were returned to the incubator for an additional 3 to 5 days. CellTiter-Glo reagent was prepared per manufacturer's instructions and added at 100 μL/well to the cultures. CellTiter-Glo allows for relative enumeration of metabolically active cells by quantifying intracellular ATP concentrations. […] Luminescence signals were detected using a standard plate reader and IC50s were calculated by logistic nonlinear regression using GraphPad Prism (GraphPad Software, San Diego, CA).
For orientation: In ATP-based viability assays light output follows the ATP content of the culture.

For data set [2], the system named is Confluent HCC1954 (Her2 positive). Put plainly: Adherent cells cytotoxicity assay (CellTiter-Glo), confluent HCC1954. In kind it is cell-based. Particulars: Homo sapiens.
In another data set the test system is SKBR3 (Her2 positive). Put plainly: Adherent cells cytotoxicity assay (CellTiter-Glo), SKBR3. In kind it is cell-based. Particulars: Homo sapiens, SK-BR-3, 3 to 5 days. The procedure: as §1
For a further data set, the system named is SUDHL1 (CD30 positive). Briefly: Suspension cells cytotoxicity assay (CellTiter-Glo), SUDHL1. The class given is cell-based. To be noted: Homo sapiens, SU-DHL-1, 3-5 days. On the procedure: Three to five thousand (3,000-5,000) cells per well were seeded in tissue culture plates in 50 μL/well culture media and incubated at 37° C. for 18-24 hours.
Serial dilutions of ADCs in culture media were then dispensed into the plates at 50 μL/well. […] CellTiter-Glo reagent was prepared per manufacturer's instructions and added at 100 μL/well to the cultures. CellTiter-Glo allows for relative enumeration of metabolically active cells by quantifying intracellular ATP concentrations. […] Luminescence signals were detected using a standard plate reader and IC50s were calculated by logistic nonlinear regression using GraphPad Prism (GraphPad Software, San Diego, CA).

Take `COc1cc2c(cc1O)CCN[C@]21CS[C@@H]2c3c(OC(C)=O)c(C)c4c(c3[C@H](COC1=O)N1[C@@H]2[C@H]2c3c(cc(C)c(OC)c3O)C[C@@H]([C@@H]1O)N2C)OCO4` [trabectedin]: the “maximum tolerated dose (MTD)” value in data set [1] was 0.15 mg/kg.

As for `COc1ccc2[nH]c3c(c2c1)CCN(C(N1CCCC1)N1CCCC1)[C@]31CS[C@@H]2c3c(OC(C)=O)c(C)c4c(c3[C@H](COC1=O)N1C2[C@H]2c3c(cc(C)c(OC)c3O)C[C@@H](C1O)N2C)OCO4` (some centres unmarked) [Lurbinectedin Derivative 1], the IC50 (commonly the concentration that gives 50% inhibition) in the data set on HCC1954 (Her2 positive) was 2.58 nM; in data set [2], 3.7 nM; in the data set on SKBR3 (Her2 positive), 0.542 nM; with SUDHL1 (CD30 positive) it was 0.625 nM.
